Columns and labels:
TrkA = target: T1, TrkA (Rattus norvegicus, UniProt P35739); assay: NGF-induced TrkA phosphorylation in PC12 cells; format: cell-based; details: 50 ng/ml NGF with 20 μM XIB4035, 10 minutes; 15, 30 or 45 minutes after
T1 construct: endogenous in cells; host or cells: PC12 (PC-12) cells
Description: PC12 cells were treated with 50 ng/ml of NGF with or without 20 μM XIB4035 for 10 minutes. Cell lysates were either collected immediately or after cells were incubated in growth media for additional 15, 30, or 45 minutes. Cell lysates were subjected to immunoprecipitation using anti-TrkA antibodies and analysis via phospho-tyrosine Western blot. TrkA phosphorylation is not prolonged by addition of XIB4035.
(§1) For phosphorylated Ret immunoblot experiments, cells were treated with various combinations of molecules for 10 minutes and either collected immediately or had treatment washed out and returned to control treatment media for the times indicated prior to cell collection. Lysates were collected in buffer containing: 50 mM Tris-HCL, 1% TX-100, 0.25% Deoxycholic acid, 150 mM sodium chloride, 1 mM EDTA, 0.1 mM sodium fluoride, 0.1 mM sodium pyrophosphate, 0.02 mM sodium orthovanadate, and protease inhibitors Immunoblots were blocked in 5% bovine serum albumin in tris-buffered saline+0.2% Tween 20+0.1 mM sodium fluoride, 0.1 mM sodium pyrophosphate, and 0.02 mM sodium orthovanadate and probed in blocking solution using anti-phospotyrosine (4G10) mouse monoclonal antibody (1:2000; EMD Milipore Corp., Billerica, Mass.). Secondary detection was performed in blocking solution using HRP-conjugated goat-anti-mouse antibodies (1:1000; MP Biolomedicals LLC, Solon, Ohio). […]

GFAP-DN-erbB4 mice = assay: Electron microscopy of sciatic nerve Remak bundles, GFAP-DN-erbB4 mice; format: in vivo, mouse
Description: As a first test, a cream containing XIB4035 (1.5 mM) was applied directly to the hind paws of GFAP-DN-erbB4 and wild type mice twice daily for a period of 4 weeks starting prior to symptom onset (P21). Mice of both genotypes were also treated with the base cream containing no drug for control. Mice were tested for responses to a noxious thermal stimulus prior to the initiation of treatment and every 7 days for the duration of the experiment.
The cream containing XIB4035 (1.5 mM, ZereneX Molecular Ltd., Manchester, UK) consisted of N-methyl-pyrrolidone (6.25%), isopropyl myristate (6.25%) and petroleum jelly (87.5%). Control cream had the same ingredients without XIB4035. Cream was applied twice daily to the hind paws of mice starting at P21 for a period of 4 weeks for prophylactic treatment of GFAP-DN-erbB4. Diabetic mice were treated twice daily for 8 weeks after streptozotocin (STZ) injection prior to onset of hyperglycemia and for another 8 weeks during neuropathy testing. Cream treatment in therapeutic studies using GFAP-DN-erbB4 mice was performed twice daily beginning after onset of SFN at P28 and either continued for 5 weeks (chronic treatment) or 1 week (acute treatment).
Tissue was prepared as in (Lacomis, supra). Briefly, mice were perfused intracardially with 2% paraformaldehyde, 2.5% gluteraldehyde and 0.03% picric acid in 0.1 M cacodylate buffer (pH 7.2). Tissue was post-fixed overnight at 4° C. and embedded in Epon. Ultrathin sections were cut, collected on cellodin-coated grids and stained using uranyl acetate and lead citrate. Photographs were taken using the Tecnai G2 Spirit BioTWIN transmission electron microscope.

GFRα3/RET = target: T2, GFRα3/RET (UniProt O60609+P35546); assay: RET phosphorylation in N2A cells transfected with GFRα3; format: cell-based, human GFRα3 in murine N2A cells
T2 construct: N2A cells (which express RET) transfected with GFRα1 or GFRα3 expression constructs; expressed in transfected cells; host or cells: Neuro2A (N2A) cells; GFRα3 plasmid was a gift from Dr. Milbrandt; RET is endogenous
T2 sequence (O60609 32-374 limits assumed): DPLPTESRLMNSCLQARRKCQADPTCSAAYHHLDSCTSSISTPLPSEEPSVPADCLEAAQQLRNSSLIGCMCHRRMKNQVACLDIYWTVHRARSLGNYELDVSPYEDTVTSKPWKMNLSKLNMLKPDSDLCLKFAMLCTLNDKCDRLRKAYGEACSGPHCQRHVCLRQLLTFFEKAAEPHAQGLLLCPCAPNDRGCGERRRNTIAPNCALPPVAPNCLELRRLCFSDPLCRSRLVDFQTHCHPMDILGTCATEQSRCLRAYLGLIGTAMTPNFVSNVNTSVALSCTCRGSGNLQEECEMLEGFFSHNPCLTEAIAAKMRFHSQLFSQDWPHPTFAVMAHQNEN
T2 sequence (P35546 29-1115): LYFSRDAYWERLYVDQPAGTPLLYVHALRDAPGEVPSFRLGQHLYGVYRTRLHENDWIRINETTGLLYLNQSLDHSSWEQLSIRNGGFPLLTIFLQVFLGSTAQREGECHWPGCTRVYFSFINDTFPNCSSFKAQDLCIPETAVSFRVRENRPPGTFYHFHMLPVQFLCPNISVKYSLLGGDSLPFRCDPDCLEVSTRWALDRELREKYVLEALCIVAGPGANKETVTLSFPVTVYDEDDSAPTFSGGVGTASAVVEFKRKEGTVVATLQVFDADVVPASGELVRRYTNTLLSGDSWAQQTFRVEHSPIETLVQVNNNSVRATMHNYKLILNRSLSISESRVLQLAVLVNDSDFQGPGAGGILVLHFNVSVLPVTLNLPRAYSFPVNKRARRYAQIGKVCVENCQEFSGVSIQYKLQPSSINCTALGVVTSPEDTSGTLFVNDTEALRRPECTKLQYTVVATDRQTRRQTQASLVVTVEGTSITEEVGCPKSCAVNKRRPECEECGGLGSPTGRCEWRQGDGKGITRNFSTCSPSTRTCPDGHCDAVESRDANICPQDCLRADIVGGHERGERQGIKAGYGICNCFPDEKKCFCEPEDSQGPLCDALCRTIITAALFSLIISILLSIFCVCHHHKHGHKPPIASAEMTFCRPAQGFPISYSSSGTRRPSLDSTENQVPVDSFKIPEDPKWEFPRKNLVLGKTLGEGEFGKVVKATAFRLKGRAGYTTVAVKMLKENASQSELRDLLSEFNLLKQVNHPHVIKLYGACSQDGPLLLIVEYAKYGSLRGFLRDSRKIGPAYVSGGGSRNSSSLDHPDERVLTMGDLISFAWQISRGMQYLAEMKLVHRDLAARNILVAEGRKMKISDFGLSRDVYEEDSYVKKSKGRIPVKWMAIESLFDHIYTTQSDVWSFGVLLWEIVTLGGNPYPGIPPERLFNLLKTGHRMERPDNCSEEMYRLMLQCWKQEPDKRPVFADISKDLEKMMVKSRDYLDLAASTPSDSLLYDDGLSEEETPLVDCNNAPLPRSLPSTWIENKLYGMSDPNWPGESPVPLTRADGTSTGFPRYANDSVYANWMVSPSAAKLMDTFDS
Description: Since the original report argued that XIB4035 displaces GDNF binding to GFRα1 expressing cells (FIG. 2 in Tokugawa et al., Neurochem Int 42, 81-86 (2003).), potentially ARTN, on TH-luciferase activity and Ret phosphorylation. […] In this experiment, cells were treated with GDNF or ARTN with or without XIB4035 for 10 minutes and cell lysates were either collected immediately or treatment was washed out and replaced with growth media for 30, 60, or 120 minutes. […] Therefore, we tested cells expressing only one GFRα using either N2A cells (which express RET) transfected with GFRα1 or GFRα3 expression constructs, or B(E)2-C cells, which express only GFRα2 together with RET. […] The GFRα1 or GFRα3 transfected N2A cells were then treated with XIB4035 alone, the appropriate ligand for the expressed receptor alone, or XIB4035 and ligand in combination for 10 minutes, and collected lysates immediately after treatment or 60 minutes after washout. […] Similar results were obtained with GFRα2 and NRTN using B(E)2-C cells (FIG. 8). Thus, XIB4035 is a positive modulator of signaling by GDNF family ligands and their receptors, not an agonist for GFRα1 as previously reported.
as §1, with “Mass.).” for “Mass.). Secondary detection was performed in blocking solution using HRP-conjugated goat-anti-mouse antibodies (1:1000; MP Biolomedicals LLC, Solon, Ohio).”

[1] = GFAP-DN-erbB4 mice, XIB4035 cream 4 weeks

T1 sequence (P35739 33-799): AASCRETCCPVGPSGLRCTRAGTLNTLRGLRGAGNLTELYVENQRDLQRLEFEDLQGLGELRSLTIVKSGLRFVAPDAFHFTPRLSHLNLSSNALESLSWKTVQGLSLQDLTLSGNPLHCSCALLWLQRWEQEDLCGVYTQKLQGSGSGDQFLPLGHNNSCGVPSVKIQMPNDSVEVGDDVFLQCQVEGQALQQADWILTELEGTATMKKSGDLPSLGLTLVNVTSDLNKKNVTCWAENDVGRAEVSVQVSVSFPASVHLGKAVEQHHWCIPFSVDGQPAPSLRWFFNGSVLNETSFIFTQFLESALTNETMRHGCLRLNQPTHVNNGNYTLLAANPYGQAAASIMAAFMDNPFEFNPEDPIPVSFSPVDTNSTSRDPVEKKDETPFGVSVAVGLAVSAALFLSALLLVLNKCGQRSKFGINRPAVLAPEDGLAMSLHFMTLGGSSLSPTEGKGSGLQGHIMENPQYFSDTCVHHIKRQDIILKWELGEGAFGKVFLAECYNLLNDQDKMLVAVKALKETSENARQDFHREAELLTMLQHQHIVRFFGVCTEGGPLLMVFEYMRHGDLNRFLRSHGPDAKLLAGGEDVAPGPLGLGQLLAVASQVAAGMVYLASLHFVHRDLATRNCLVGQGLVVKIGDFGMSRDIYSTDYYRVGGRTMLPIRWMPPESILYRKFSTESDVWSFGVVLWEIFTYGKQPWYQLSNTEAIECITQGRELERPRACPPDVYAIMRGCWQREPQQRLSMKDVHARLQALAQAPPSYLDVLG

## CCN(CC)CCCC(C)Nc1cc(/C=C/c2ccccc2Cl)nc2cc(Cl)ccc12 (stereo not drawn) [XIB4035, N4-{7-chloro-2-[(E)-2-(2-chloro-phenyl)-vinyl]-quinolin-4-yl}-N1,N1-diethyl-pentane-1,4-diamine]
TrkA
  NGF-induced TrkA phosphorylation: not prolonged
GFAP-DN-erbB4 mice; [1]
  c-fiber area: 1.64 ± 0.07 µm²
  c-fibers/Remak bundle: 8.40 ± 0.83
GFAP-DN-erbB4 mice; cream 1.5 mM twice daily P21-P49, sciatic nerve EM
  degeneration of Remak bundles and C-fiber axons: prevented the degeneration of Remak bundles and C-fiber axons
GFRα3/RET; XIB4035 alone, 10 minutes
  induction of RET phosphorylation: did not induce RET phosphorylation
GFRα3/RET; XIB4035 and ligand co-treatment, 60 minutes after washout
  RET phosphorylation at the 60 min time-point compared to ligand alone: clearly prolonged

From patent publication US20160045487A1, “COMPOSITIONS AND METHODS FOR TREATING NEUROPATHY” (CHILDEREN'S MEDICAL CENTER CORPORATION, priority 2013, published 2016)
